Counter-ions that a name gives are not always drawn.
system: U937 cells adhered to HUVEC stimulated by TNFα; experiment: Inhibitory effect on cell adhesion (U937 adhesion to TNFα-stimulated HUVEC); format: cell-based, human; conditions: Homo sapiens; U937 adhesion to TNFα-stimulated HUVEC; fluorescence (PKH2) readout
Experimental: The test was conducted by reference to the method by Ross et al. (J. Biol. Chem., 267 8537-8543 (1992)). More specifically, after human umbilical venous endothelial cells (HUVEC) were cultured on a 48-well plate to confluent growth, TNFα was added thereto. Upon elapsed time of 5 hours after the addition, U937, which was a human monocytic/histocytic cell fluorescence-labeled with PKH2 (product of Sigma-Aldrich Co., Ltd.), was added in a proportion of 1×10^6 cells per well. After the plate was left at rest at room temperature for 1 hour, unadhered U937 was washed out and lysed in 1% Triton X-100 to measure a remaining fluorescence intensity (excitation wavelength: 480 nm; measuring wavelength: 530 nm). HUVEC and U937 were cultured in EGM-2 (product of Sanko Junyaku K. K.) and 10% FCS-containing RPMI1640, respectively. Each test agent was added to HUVEC upon the addition of TNFα and to U937 24 hours prior to the cell adhesion test. The inhibitory activity was calculated out as IC50 value after inhibitory ratio at each concentration of test compounds was determined. The inhibitory ratio was calculated according to the equation […], wherein A is the number of U937 cells adhered to HUVEC stimulated by TNFα when no test agent was added, B is the number of U937 cells adhered to HUVEC not stimulated by TNFα when no test agent was added, and C is the number of U937 cells adhered to HUVEC stimulated by TNFα when the test agent was added. As control compounds, Test Compound 1 described in Japanese Patent Application Laid-Open No. 9-143075 and dilazep described in Japanese Patent Application Laid-Open No. 11-92382 were simultaneously evaluated.

Going from `COc1cc(C(=O)OCCCN2CCCN(CCCOC(=O)c3cc(OC)c(OC)c(OC)c3)CC2)cc(OC)c1OC` [Dilazep, dilazep, reference compound] to `COc1cc(-c2cc(CNC3CCN(Cc4ccnc(-c5cc(OC)c(OC)c(OC)c5)c4)CC3)ccn2)cc(OC)c1OC` [Example 5, 1-[[2-(3,4,5-Trimethoxyphenyl)pyridin-4-yl]methyl]-4-[[2-(3,4,5-trimethoxyphenyl)pyridin-4-yl]methylamino]piperidine Difumalate], the IC50 falls from > 10000 nM to 200 nM.

Compared with `COc1cc(-c2cc(CN3CC[C@H](N(C)Cc4ccnc(-c5cc(OC)c(OC)c(OC)c5)c4)C3)ccn2)cc(OC)c1OC` [Example 3, (3S)-3-[N-Methyl-N-[[2-(3,4,5-trimethoxyphenyl)pyridin-4-yl]methyl]amino]-1-[[2-(3,4,5-trimethoxyphenyl)pyridin-yl]methyl]pirrolidine Tertrahydrochloride], `COc1cc(-c2cc(CN3CCC(N(C)Cc4ccnc(-c5cc(OC)c(OC)c(OC)c5)c4)CC3)ccn2)cc(OC)c1OC` [Example 36, 4-[N-Methyl-N-[[2-(3,4,5-trimethoxyphenyl)pyridin-4-yl]methyl]amino]-1-[[2-(3,4,5-trimethoxyphenyl)pyridin-4-yl]methyl]piperidine Tetrahydrochloride] is 1.5-fold lower in IC50: 300 nM for the first, 200 nM for the second. The second is the more potent here.

First: COc1cc(-c2cncc(CN(C)C3CCN(Cc4ccnc(-c5cc(OC)c(OC)c(OC)c5)c4)CC3)c2)cc(OC)c1OC [Example 7, 4-[N-Methyl-N-[[5-(3,4,5-trimethoxyphenyl)pyridin-3-yl]methyl]amino]-1-[[2-(3,4,5-trimethoxyphenyl)pyridin-4-yl]methyl]piperidine Difumarate]
Second: COc1ccc(N(Cc2cncc(-c3cc(OC)c(OC)c(OC)c3)c2)C2CCN(Cc3ccnc(-c4cc(OC)c(OC)c(OC)c4)c3)CC2)cc1 [Example 13, 4-[N-(4-Methoxyphenyl)-N-[[5-(3,4,5-trimethoxyphenyl)pyridin-3-yl]methyl]amino]-1-[[2-(3,4,5-trimethoxyphenyl)pyridin-4-yl]methyl]piperidine Trihydrochloride]
The IC50 of the first is 10-fold higher: 300 nM for the first, 30 nM for the second.

Going from `COc1ccc(N(Cc2ccnc(-c3cc(OC)c(OC)c(OC)c3)c2)C2CCN(Cc3ccnc(-c4cc(OC)c(OC)c(OC)c4)c3)CC2)cc1` [Example 10, 4-[N-(4-Methoxyphenyl)-N-[[2-(3,4,5-trimethoxypheny)pyridin-4-yl]methyl]amino]-1-[[2-(3,4,5-trimethoxyphenyl)pyridin-4-yl]methyl]piperidine Trihydrochloride] to `COc1cc(-c2cc(CN3CCC(N(Cc4ccnc(-c5cc(OC)c(OC)c(OC)c5)c4)c4ccc(F)cc4)CC3)ccn2)cc(OC)c1OC` [Example 157, 4-[N-(4-Fluorophenyl)-N-[[2-(3,4,5-trimethoxyphenyl)pyridin-4-yl]methyl]amino]-1-[[2-(3,4,5-trimethoxyphenyl)pyridin-4-yl]methyl]piperidine Trihydrochloride], the IC50 rises from 40 nM to 90 nM (2.2-fold). The first is the more potent here.

Going from `COc1cc(-c2cc(CN3CCC(N(Cc4ccccc4)Cc4ccnc(-c5cc(OC)c(OC)c(OC)c5)c4)CC3)ccn2)cc(OC)c1OC` [Example 16, 4-[N-Benzyl-N-[[2-(3,4,5-trimethoxyphenyl)pyridin-4-yl]methyl]amino]-1-[[2-(3,4,5-trimethoxyphenyl)pyridin-4-yl]methyl]piperidine Tetrahydrochloride] to `COc1cc(-c2cc(CN3CCC(N(Cc4ccnc(-c5cc(OC)c(OC)c(OC)c5)c4)c4ccccc4)CC3)ccn2)cc(OC)c1OC` [Example 42, 4-[N-Phenyl-N-[[2-(3,4,5-trimethoxyphenyl)pyridin-4-yl]methyl]amino]-1-[[2-(3,4,5-trimethoxyphenyl)pyridin-4-yl]methyl]piperidine Trihydrochloride], the IC50 falls from 300 nM to 70 nM (4.3-fold). The second is the more potent here.

Compared with `COc1cc(-c2cncc(CN(Cc3ccccc3)C3CCN(Cc4ccnc(-c5cc(OC)c(OC)c(OC)c5)c4)CC3)c2)cc(OC)c1OC` [Example 19, 4-[N-Benzyl-N-[[5-(3,4,5-trimethoxypheny)pyridin-3-yl]methyl]amino]-1-[[2-(3,4,5-trimethoxyphenyl)pyridin-4-yl]methyl]piperidine Tetrahydrochloride], `COc1ccc(N(Cc2ccnc(-c3cc(OC)c(OC)c(OC)c3)c2)C2CCN(Cc3cncc(-c4cc(OC)c(OC)c(OC)c4)c3)CC2)cc1` [Example 67, 4-[N-(4-Methoxyphenyl)-N-[[2-(3,4,5-trimethoxyphenyl)pyridin-4-yl]methyl]amino]-1-[[3-(3,4,5-trimethoxyphenyl)pyridin-5-yl]methyl]piperidine Trihydrochloride] is 3.3-fold lower in IC50: 300 nM for the first, 90 nM for the second.

Going from `COc1cc(OC)cc(N(Cc2ccnc(-c3cc(OC)c(OC)c(OC)c3)c2)C2CCN(Cc3ccnc(-c4cc(OC)c(OC)c(OC)c4)c3)CC2)c1` [Example 23, 4-[N-(3,5-Dimethoxyphenyl)-N-[[2-(3,4,5-trimethoxyphenyl)pyridin-4-yl]methyl]amino]-1-[[2-(3,4,5-trimethoxyphenyl)pyridin-4-yl]methyl]piperidine Trihydrochloride] to `COc1cccc(N(Cc2ccnc(-c3cc(OC)c(OC)c(OC)c3)c2)C2CCN(Cc3ccnc(-c4cc(OC)c(OC)c(OC)c4)c3)CC2)c1` [Example 88, 4-[N-(3-Methoxyphenyl)-N-[[2-(3,4,5-trimethoxyphenyl)pyridin-4-yl]methyl]amino]-1-[[2-(3,4,5-trimethoxyphenyl)pyridin-4-yl]methyl]piperidine Trihydrochloride], the IC50 rises from 30 nM to 70 nM (2.3-fold).

First: COc1cc(-c2cc(CN3CCC(N(Cc4ccnc(-c5cc(OC)c(OC)c(OC)c5)c4)c4ccc5c(c4)OCO5)CC3)ccn2)cc(OC)c1OC [Example 29, 4-[N-(3,4-Methylenedioxyphenyl)-N-[[2-(3,4,5-trimethoxyphenyl)pyridin-4-yl]methyl]amino]-1-[[2-(3,4,5-trimethoxyphenyl)pyridin-4-yl]methyl]piperidine Trihydrochloride]
Second: COc1cc(-c2cc(CN3CCC(N(Cc4ccnc(-c5cc(OC)c(OC)c(OC)c5)c4)c4ccc(SC)cc4)CC3)ccn2)cc(OC)c1OC [Example 111, 1-[[2-(3,4,5-Trimethoxyphenyl)pyridin-4-yl]methyl]-4-[N-[[2-(3,4,5-trimethoxyphenyl)pyridin-4-yl]methyl]-N-(4-methylthiophenyl)amino]piperidine Trihydrochloride]
The IC50 of the first is 2.7-fold lower: 30 nM for the first, 80 nM for the second.

`COc1cccc(N(Cc2ccnc(-c3cc(OC)c(OC)c(OC)c3)c2)C2CCN(Cc3cncc(-c4cc(OC)c(OC)c(OC)c4)c3)CC2)c1` [Example 89, 4-[N-(3-Methoxyphenyl)-N-[[2-(3,4,5-trimethoxyphenyl)pyridin-4-yl]methyl]amino]-1-[[3-(3,4,5-trimethoxyphenyl)pyridin-5-yl]methyl]piperidine Trihydrochloride] was tested, and the IC50 was 90 nM.

same assay, conditions: examined similar to the Test Example 1 procedure; even at a concentration as high as 10 μM

In the case of `c1cc(CNC2CCN(Cc3ccncc3)CC2)ccn1` [Preparation Example 91, 1-(4-Pycolyl)-4-(4-pycolylamino)piperidine Tetrahydrochloride, reference compound], the “inhibitory effect on cell adhesion (result in words)” value is reported as “inactive”.
